Where a name gives a salt, the structure may show the parent alone.
Assays:
HIV-1 RT [1] = molecular target: T1, HIV-1 RT (Human immunodeficiency virus type 1 group M subtype B, UniProt P03366); assay: Heteropolymer HIV Reverse Transcriptase Assay: Inhibitor IC50 Determination; type: biochemical; settings: purified recombinant enzyme, poly(rA)/oligo(dT)16 template-primer, 4 nM HIV-1 RT, 37° C. 30 min; TABLE 2
Description: HIV-1 RT assay was carried out in 96-well Millipore MultiScreen MADVNOB50 plates using purified recombinant enzyme and a poly(rA)/oligo(dT)16 template-primer in a total volume of 50 μL. The assay constituents were 50 mM Tris/HCl, 50 mM NaCl, 1 mM EDTA, 6 mM MgCl2, 5 μM dTTP, 0.15 μCi [^3H] dTTP, 5 μg/ml poly (rA) pre annealed to 2.5 μg/ml oligo (dT)16 and a range of inhibitor concentrations in a final concentration of 10% DMSO. Reactions were initiated by adding 4 nM HIV-1 RT and after incubation at 37° C. for 30 min, they were stopped by the addition of 50 μl ice cold 20% TCA and allowed to precipitate at 4° C. for 30 min. The precipitates were collected by applying vacuum to the plate and sequentially washing with 3×200 μl of 10% TCA and 2×200 μl 70% ethanol. Finally, the plates were dried and radioactivity counted in a Packard TopCounter after the addition of 25 μl scintillation fluid per well. IC50's were calculated by plotting % inhibition versus log10 inhibitor concentrations.

HIV-1 RT [2] = molecular target: T1, HIV-1 RT; assay: Homopolymer HIV Reverse Transcriptase Assay: Inhibitor IC50 Determination; type: biochemical; settings: purified recombinant enzyme, poly(rA)/oligo(dT)16 template-primer, 5 nM HIV-1 RT, 37° C. 30 min; TABLE 3
Description: HIV-1 RT assay was carried out in 96-well Millipore filtermat NOB50 plates using purified recombinant enzyme and a poly(rA)/oligo(dT)16 template-primer in a total volume of 50 μL. The assay constituents were 50 mM Tris/HCl, 50 mM NaCl, 1 mM EDTA, 6 mM MgCl2, 5 μM dTTP, 0.1 μCi [^3H] dTTP, 5 μg/ml poly (rA) pre annealed to 2.5 μg/ml oligo (dT)16 and a range of inhibitor concentrations in a final concentration of 10% DMSO. Reactions were initiated by adding 5 nM HIV-1 RT and after incubation at 37° C. for 30 min, they were stopped by the addition of 50 μl ice cold 20% TCA and allowed to precipitate at 4° C. for 30 min. The precipitates were collected by applying vacuum to the plate and sequentially washing with 2×200 μl of 10% TCA and 2×200 μl 70% ethanol. Finally the plates were dried and radioactivity counted in a Wallac Microbeta 1450 after the addition of 15 μL scintillation fluid per well. IC50's (TABLE 3) were calculated by plotting % inhibition versus log10 inhibitor concentrations.

| melting point | SMILES | IC50 (HIV-1 RT [1]) | IC50 (HIV-1 RT [2]) |
| --- | --- | --- | --- |
| 250 to 251.1 °C | N#Cc1cc(Cl)cc(Oc2c(Br)ccc(Cc3n[nH]c4c(C#N)cccc34)c2F)c1 | – | – |
| 179.9 to 181.3 °C | N#Cc1cc(Cl)cc(Oc2c(Br)ccc(Cc3n[nH]c4c(N)cccc34)c2F)c1 | – | – |
| 204 to 205 °C | N#Cc1cc(Cl)cc(Oc2c(Br)ccc(Cc3n[nH]c4nccnc34)c2F)c1 | – | – |
| 138.6 to 142.6 °C | Cn1nc(Cc2ccc(Br)c(Oc3cc(Cl)cc(C#N)c3)c2F)c2cccnc21 | – | – |
| 205 to 206.9 °C | CCc1ccc(Cc2n[nH]c3ncccc23)c(F)c1Oc1cc(Cl)cc(C#N)c1 | – | – |
| 215 to 218 °C | N#Cc1cc(Cl)cc(Oc2c(Br)ccc(Cc3n[nH]c4ncncc34)c2F)c1 | – | – |
| 206.5 to 209 °C | N#Cc1cc(Cl)cc(Oc2c(Br)ccc(Cc3n[nH]c4ncc(F)cc34)c2F)c1 | – | – |
| 166 to 166.9 °C | N#Cc1cc(Oc2c(Br)ccc(Cc3n[nH]c4cnccc34)c2F)cc(C(F)F)c1 | – | – |
| 223.8 to 225 °C | COc1ccc2c(Cc3ccc(Br)c(Oc4cc(Cl)cc(C#N)c4)c3F)n[nH]c2n1 | – | – |
| 212.3 to 214 °C | N#Cc1cc(Cl)cc(Oc2c(Br)ccc(Cc3n[nH]c4nc(Cl)ccc34)c2F)c1 | – | – |
| 210 to 215.5 °C | N#Cc1cc(Cl)cc(Oc2c(Cl)ccc(Cc3n[nH]c4ncccc34)c2F)c1 | – | – |
| 237.6 to 240.8 °C | N#Cc1cc(Cl)cc(Oc2c(Br)ccc(Cc3n[nH]c4nnccc34)c2F)c1 | – | – |
| 216 to 218.5 °C | N#Cc1cc(Cl)cc(Oc2c(Br)ccc(Cc3n[nH]c4ccncc34)c2F)c1 | – | – |
| 214.2 to 216 °C | N#Cc1cc(Cl)cc(Oc2c(Br)ccc(Cc3n[nH]c4c([N+](=O)[O-])cccc34)c2F)c1 | – | – |
| 215 to 218.8 °C | Cc1ccc(Cc2n[nH]c3ncccc23)c(F)c1Oc1cc(Cl)cc(C#N)c1 | – | – |
| 182 to 186.9 °C | N#Cc1cc(Cl)cc(Oc2c(Br)ccc(Cc3n[nH]c4cnccc34)c2F)c1 | – | – |

Second part, the compound before the results:

| SMILES | melting point | IC50 (HIV-1 RT [1]) | IC50 (HIV-1 RT [2]) |
| --- | --- | --- | --- |
| CS(=O)(=O)c1ccc(Cc2n[nH]c3nnccc23)c(F)c1Oc1cc(Cl)cc(C#N)c1 | 239.5 to 240.7 °C | – | – |
| N#Cc1cc(Cl)cc(Oc2c(Br)ccc(Cc3n[nH]c4nc(Cl)ncc34)c2F)c1 [Compound I-13, 3-[6-Bromo-3-(6-chloro-1H-pyrazolo[3,4-d]pyrimidin-3-ylmethyl)-2-fluoro-phenoxy]-5-chloro-benzonitrile] | 216 to 217.9 °C | 8.6 nM | – |
| CS(=O)(=O)Nc1cccc2c(Cc3ccc(Br)c(Oc4cc(Cl)cc(C#N)c4)c3F)n[nH]c12 | 234 to 236 °C | – | – |
| Cn1c(=O)ccc2c(Cc3ccc(Br)c(Oc4cc(Cl)cc(C#N)c4)c3F)n[nH]c21 [Compound I-48, 3-[6-Bromo-2-fluoro-3-(7-methyl-6-oxo-6,7-dihydro-1H-pyrazolo[3,4-b]pyridin-3-ylmethyl)-phenoxy]-5-chloro-benzonitrile, TFA salt] | – | 0.9 nM | – |
| N#Cc1cc(C#N)cc(Oc2c(Cl)ccc(Cc3n[nH]c4nnccc34)c2F)c1 | 222.8 to 224.7 °C | – | – |
| N#Cc1cc(Cl)cc(Oc2c(C3CC3)ccc(Cc3n[nH]c4ncccc34)c2F)c1 | 215 to 216.8 °C | – | – |
| N#Cc1cc(Cl)cc(Oc2c(C(F)F)ccc(Cc3n[nH]c4nnccc34)c2F)c1 | 177.5 to 178.2 °C | – | – |
| N#Cc1cc(Cl)cc(Oc2c(Br)ccc(Cc3n[nH]c4ncccc34)c2F)c1 [Compound I-7, 3-[6-Bromo-2-fluoro-3-(1H-pyrazolo[3,4-b]pyridin-3-ylmethyl)-phenoxy]-5-chloro-benzonitrile] | 242 to 243 °C | 7.6 nM | – |
| N#Cc1cc(C#N)cc(Oc2c(C3CC3)ccc(Cc3n[nH]c4ncccc34)c2F)c1 | 221 to 223.6 °C | – | – |
| Cc1cc(C#N)cc(Oc2c(Cl)ccc(Cc3n[nH]c4nnccc34)c2F)c1 | 200 to 202.9 °C | – | – |
| CN1CCc2c(Cc3ccc(Br)c(Oc4cc(Cl)cc(C#N)c4)c3F)n[nH]c2C1=O | 235.5 to 237.1 °C | – | – |
| N#Cc1cc(C#N)cc(Oc2c(Br)ccc(Cc3n[nH]c4ncccc34)c2F)c1 [Compound I-16, 5-[6-Bromo-2-fluoro-3-(1H-pyrazolo[3,4-b]pyridin-3-ylmethyl)-phenoxy]-isophthalonitrile] | 230 to 232.9 °C | 3.3 nM | – |
| N#Cc1cc(Oc2c(Br)ccc(Cc3n[nH]c4ccccc34)c2F)cc(C(F)F)c1 [Compound I-6, 3-[6-Bromo-2-fluoro-3-(1H-indazol-3-ylmethyl)-phenoxy]-5-difluoromethyl-benzonitrile] | – | 11.8 nM | – |
| N#Cc1cc(Oc2c(Cl)ccc(Cc3n[nH]c4ncccc34)c2F)cc(C(F)F)c1 [Compound I-28, 3-[6-Chloro-2-fluoro-3-(1H-pyrazolo[3,4-b]pyridin-3-ylmethyl)-phenoxy]-5-difluoromethyl-benzonitrile] | 198 to 199 °C | 3.7 nM | – |
| COc1ccc(Cc2n[nH]c3ncccc23)c(F)c1Oc1cc(C#N)cc(C(F)F)c1 | 197.9 to 201.9 °C | – | – |
| N#Cc1cc(Oc2c(Br)ccc(Cc3n[nH]c4ncccc34)c2F)cc(C(F)F)c1 | 192 to 194.4 °C | – | – |
| N#Cc1cc(Cl)cc(Oc2c(Cl)ccc(Cc3n[nH]c4ccccc34)c2F)c1 [Compound I-3, 3-Chloro-5-[6-chloro-2-fluoro-3-(1H-indazol-3-ylmethyl)-phenoxy]-benzonitrile] | 163.3 to 163.7 °C | – | 52 nM |
| N#Cc1cc(Cl)cc(Oc2c(Cl)ccc(Cc3n[nH]c4nnccc34)c2F)c1 [Compound I-11, 3-Chloro-5-[6-chloro-2-fluoro-3-(1H-pyrazolo[3,4-c]pyridazin-3-ylmethyl)-phenoxy]-benzonitrile] | – | 1 nM | – |
| N#Cc1cc(Oc2c(Br)ccc(Cc3cc(-c4ccccc4)[nH]n3)c2F)cc(C(F)F)c1 [Compound I-5, 3-[6-Bromo-2-fluoro-3-(5-phenyl-1H-pyrazol-3-ylmethyl)-phenoxy]-5-difluoromethyl-benzonitrile] | 78.3 to 90.1 °C | – | 55 nM |
| N#Cc1cc(Cl)cc(Oc2c(Cl)ccc(Cc3cc(-c4ccccc4)[nH]n3)c2F)c1 | 148 to 150.1 °C | – | – |
| Cc1ccc(Cc2n[nH]c3ncccc23)c(F)c1Oc1cc(C#N)cc(C(F)F)c1 | 212.5 to 214.4 °C | – | – |
